Test results: PMC3388080 (PLoS ONE, 2012)

Tested on: male Sprague-Dawley rats
Assay: EEG/EMG/Tcore/LMA telemetry sleep study 2 (EMPA vs ZOL)
Assay type: in vivo, rat
Protocol: All rodent electroencephalograph (EEG) studies were performed at SRI International. Three groups of eight male Sprague-Dawley rats (300±25 g; Charles River, Wilmington, MA) were implanted with chronic recording devices (F40-EET, Data Sciences Inc., St Paul, MN) for continuous recordings of EEG, electromyograph (EMG), core body temperature (Tcore), and LMA via telemetry as previously described. Data recording and scoring were performed as previously reported (see also Supplemental Material and Methods). The EEG and EMG data were scored in 10 sec epochs for waking (W), rapid eye movement sleep (REM), and non-REM sleep (NR). Tcore and LMA (counts per minute) were analyzed as hourly means. Data from the EEG studies are reported in hourly means such that the hourly time ZT1 refers to the hour between time points ZT0 and ZT1.
For each of the three separate studies, a repeated measures counter-balanced design was employed in which each rat received five separate dosings. […] All dosings were administered ip in a volume of 2 ml/kg. A minimum of 3 d elapsed between doses. Dosing occurred during the middle of the rats’ normal active period at the start of ZT19 and was typically completed within 10 min. Animals were continuously recorded for 6 h prior to dosing and for 18 h following dosing.

CCN(Cc1cccnc1)C(=O)CN(c1ccc(OC)nc1)S(=O)(=O)c1ccccc1C [EMPA, N-(Ethyl-2-[(6-methoxy-pyridin-3-yl)-(toluene-2-sulfonyl)-amino]-N-pyridin-3-ylmethyl-acetamide)]
Number of REM bouts (ZT21, 100 mg/kg ip): 4.10± 1.08 | Number of W bouts (ZT21, 100 mg/kg ip): 12.40± 2.01 | REM bout duration (ZT21, 100 mg/kg ip): 1.18 ± 0.14^+ | W bout duration (ZT21, 100 mg/kg ip): 8.88± 5.82 | NR bout duration (ZT21, EMPA 10 mg/kg ip): 1.12± 0.17 | Number of NR bouts (ZT21, EMPA 10 mg/kg ip): 13.50± 2.15 | Number of REM bouts (ZT21, EMPA 10 mg/kg ip): 3.40± 0.73 | Number of W bouts (ZT21, EMPA 10 mg/kg ip): 10.20± 1.61 | REM bout duration (ZT21, EMPA 10 mg/kg ip): 0.69 ± 0.11 | W bout duration (ZT21, EMPA 10 mg/kg ip): 6.55± 2.67 | NR bout duration (ZT22, 30 mg/kg ip): 1.38± 0.15 | Number of NR bouts (ZT22, 30 mg/kg ip): 12.20± 1.65 | Number of REM bouts (ZT22, 30 mg/kg ip): 5.30± 1.09 | Number of W bouts (ZT22, 30 mg/kg ip): 9.20± 1.32 | REM bout duration (ZT22, 30 mg/kg ip): 0.83± 0.13 | W bout duration (ZT22, 30 mg/kg ip): 4.90± 1.31 | NR bout duration (ZT22, 100 mg/kg ip): 1.32± 0.31 | Number of NR bouts (ZT22, 100 mg/kg ip): 18.40± 2.70 | Number of REM bouts (ZT22, 100 mg/kg ip): 4.80± 0.98 | Number of W bouts (ZT22, 100 mg/kg ip): 13.20± 1.76 | REM bout duration (ZT22, 100 mg/kg ip): 0.84± 0.17 | W bout duration (ZT22, 100 mg/kg ip): 2.84± 0.49 | NR bout duration (ZT22, EMPA 10 mg/kg ip): 1.33± 0.24 | Number of NR bouts (ZT22, EMPA 10 mg/kg ip): 12.70± 1.87 | Number of REM bouts (ZT22, EMPA 10 mg/kg ip): 3.30± 0.58 | Number of W bouts (ZT22, EMPA 10 mg/kg ip): 8.20± 1.73 | REM bout duration (ZT22, EMPA 10 mg/kg ip): 0.84± 0.16 | W bout duration (ZT22, EMPA 10 mg/kg ip): 7.34± 2.67 | NR bout duration (ZT23, 30 mg/kg ip): 0.90± 0.11^+ | Number of NR bouts (ZT23, 30 mg/kg ip): 10.80± 2.35 | Number of REM bouts (ZT23, 30 mg/kg ip): 3.40± 1.24 | Number of W bouts (ZT23, 30 mg/kg ip): 8.00± 1.56 | REM bout duration (ZT23, 30 mg/kg ip): 0.75± 0.21 | W bout duration (ZT23, 30 mg/kg ip): 11.46± 5.56 | NR bout duration (ZT23, 100 mg/kg ip): 1.10± 0.20 | Number of NR bouts (ZT23, 100 mg/kg ip): 12.30± 1.25 | Number of REM bouts (ZT23, 100 mg/kg ip): 3.20± 0.63 | Number of W bouts (ZT23, 100 mg/kg ip): 8.60± 1.01 | REM bout duration (ZT23, 100 mg/kg ip): 0.96± 0.19 | W bout duration (ZT23, 100 mg/kg ip): 4.89 ±0.81 | NR bout duration (ZT23, EMPA 10 mg/kg ip): 1.39± 0.18 | Number of NR bouts (ZT23, EMPA 10 mg/kg ip): 11.00± 1.40 | Number of REM bouts (ZT23, EMPA 10 mg/kg ip): 3.40± 0.65 | Number of W bouts (ZT23, EMPA 10 mg/kg ip): 7.90± 1.27 | REM bout duration (ZT23, EMPA 10 mg/kg ip): 0.85± 0.09 | W bout duration (ZT23, EMPA 10 mg/kg ip): 6.10± 1.02 | NR bout duration (ZT24, 30 mg/kg ip): 1.45± 0.49 | Number of NR bouts (ZT24, 30 mg/kg ip): 7.50± 1.61 | Number of REM bouts (ZT24, 30 mg/kg ip): 2.00± 0.94 | Number of W bouts (ZT24, 30 mg/kg ip): 7.10± 1.63 | REM bout duration (ZT24, 30 mg/kg ip): 0.69± 0.13 | W bout duration (ZT24, 30 mg/kg ip): 16.83± 7.31 | NR bout duration (ZT24, 100 mg/kg ip): 1.04± 0.17 | Number of NR bouts (ZT24, 100 mg/kg ip): 9.40± 2.24 | Number of REM bouts (ZT24, 100 mg/kg ip): 2.00± 1.01 | Number of W bouts (ZT24, 100 mg/kg ip): 8.40± 1.92 | REM bout duration (ZT24, 100 mg/kg ip): 0.49± 0.09 | W bout duration (ZT24, 100 mg/kg ip): 14.62± 6.09 | NR bout duration (ZT24, EMPA 10 mg/kg ip): 1.25± 0.18^+ | Number of NR bouts (ZT24, EMPA 10 mg/kg ip): 10.00± 2.22 | Number of REM bouts (ZT24, EMPA 10 mg/kg ip): 2.30± 0.98 | Number of W bouts (ZT24, EMPA 10 mg/kg ip): 7.80± 1.76 | REM bout duration (ZT24, EMPA 10 mg/kg ip): 0.54± 0.10 | W bout duration (ZT24, EMPA 10 mg/kg ip): 9.17± 2.45 | NR or REM latency (in words) (administered in the mid-dark phase): no effect on either NR or REM latency | number of W bouts (in words) (all three concentrations (10, 30, 100 mg/kg ip)): increased the number of W bouts | Tcore (in words) (high concentration tested, across 6 h): decreased Tcore | NR during the subsequent light period (in words) (light period): No significant effects on NR
